Assay results as given in ChEMBL document CHEMBL1201862, “PubChem BioAssay data set” (2004).
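Exposure lasted 48 hours, with cells grown in 96-well plates and compounds tested at five concentrations. Here, GI50 denotes the concentration required for 50% inhibition of growth.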 Activity calls are given as the source filed them. Cut-off read from the data, not from the text of the source: active = GI50 up to about 1.1 µM and inactive = higher.

Key:
Assay in all cases: NCI-60 cell line screen, 48 h
786-0 = tested on: 786-0
A498 = tested on: A498
A549 = tested on: A549
ACHN = tested on: ACHN
BT-549 = tested on: BT-549
CAKI-1 = tested on: CAKI-1
CCRF-CEM = tested on: CCRF-CEM
COLO 205 = tested on: COLO 205
DU-145 = tested on: DU-145
EKVX = tested on: EKVX
HCC 2998 = tested on: HCC 2998
HCT-116 = tested on: HCT-116
HCT-15 = tested on: HCT-15
HL-60 = tested on: HL-60
HOP-62 = tested on: HOP-62
HOP-92 = tested on: HOP-92
HT-29 = tested on: HT-29
Hs-578T = tested on: Hs-578T
IGROV-1 = tested on: IGROV-1
K562 = tested on: K562
KM12 = tested on: KM12
LOX IMVI = tested on: LOX IMVI
M14 = tested on: M14
MCF7 = tested on: MCF7
MDA-MB-231 = tested on: MDA-MB-231
MDA-MB-435 = tested on: MDA-MB-435
MDA-N = tested on: MDA-N
MOLT-4 = tested on: MOLT-4
Malme-3M = tested on: Malme-3M
NCI-H226 = tested on: NCI-H226
NCI-H23 = tested on: NCI-H23
NCI-H460 = tested on: NCI-H460
NCI-H522 = tested on: NCI-H522
NCI/ADR-RES = tested on: NCI/ADR-RES
OVCAR-3 = tested on: OVCAR-3
OVCAR-4 = tested on: OVCAR-4
OVCAR-5 = tested on: OVCAR-5
OVCAR-8 = tested on: OVCAR-8
PC-3 = tested on: PC-3
RPMI-8226 = tested on: RPMI-8226
RXF 393 = tested on: RXF 393
SF-268 = tested on: SF-268
SF-295 = tested on: SF-295
SF-539 = tested on: SF-539
SK-MEL-28 = tested on: SK-MEL-28
SK-MEL-2 = tested on: SK-MEL-2
SK-MEL-5 = tested on: SK-MEL-5
SK-OV-3 = tested on: SK-OV-3
SN12C = tested on: SN12C
SNB-19 = tested on: SNB-19
SNB-75 = tested on: SNB-75
SR = tested on: SR
SW-620 = tested on: SW-620
T47D = tested on: T47D
TK-10 = tested on: TK-10
U-251 = tested on: U-251
UACC-257 = tested on: UACC-257
UACC-62 = tested on: UACC-62
UO-31 = tested on: UO-31

## O=C1c2ccccc2-c2ccc(N(Cc3ccc(Br)cc3)Cc3ccc(Br)cc3)cc21
786-0
  GI50: > 100 µM (inactive)
A498
  GI50: > 100 µM (inactive)
A549
  GI50: 22.3 µM (inactive)
ACHN
  GI50: > 100 µM (inactive)
BT-549
  GI50: > 100 µM (inactive)
CAKI-1
  GI50: > 100 µM (inactive)
CCRF-CEM
  GI50: 11.1 µM (inactive)
COLO 205
  GI50: > 100 µM (inactive)
DU-145
  GI50: > 100 µM (inactive)
EKVX
  GI50: > 100 µM (inactive)
HCC 2998
  GI50: > 100 µM (inactive)
HCT-116
  GI50: > 100 µM (inactive)
HCT-15
  GI50: > 100 µM
HL-60
  GI50: 20.7 µM (inactive)
HOP-62
  GI50: > 100 µM (inactive)
HOP-92
  GI50: > 100 µM (inactive)
HT-29
  GI50: > 100 µM (inactive)
Hs-578T
  GI50: > 100 µM (inactive)
IGROV-1
  GI50: > 100 µM (inactive)
K562
  GI50: > 100 µM (inactive)
KM12
  GI50: > 100 µM (inactive)
LOX IMVI
  GI50: > 100 µM (inactive)
M14
  GI50: > 100 µM (inactive)
MCF7
  GI50: > 100 µM (inactive)
MDA-MB-231
  GI50: > 100 µM (inactive)
MDA-MB-435
  GI50: > 100 µM (inactive)
MDA-N
  GI50: > 100 µM (inactive)
MOLT-4
  GI50: 36.2 µM (inactive)
Malme-3M
  GI50: > 100 µM (inactive)
NCI-H226
  GI50: > 100 µM (inactive)
NCI-H23
  GI50: > 100 µM (inactive)
NCI-H460
  GI50: 9.82 µM (inactive)
NCI-H522
  GI50: > 100 µM (inactive)
NCI/ADR-RES
  GI50: > 100 µM (inactive)
OVCAR-3
  GI50: > 100 µM (inactive)
OVCAR-4
  GI50: > 100 µM (inactive)
OVCAR-5
  GI50: > 100 µM (inactive)
OVCAR-8
  GI50: > 100 µM (inactive)
PC-3
  GI50: > 100 µM (inactive)
RPMI-8226
  GI50: > 100 µM (inactive)
RXF 393
  GI50: > 100 µM (inactive)
SF-268
  GI50: > 100 µM (inactive)
SF-295
  GI50: > 100 µM (inactive)
SF-539
  GI50: > 100 µM (inactive)
SK-MEL-28
  GI50: > 100 µM (inactive)
SK-MEL-2
  GI50: > 100 µM (inactive)
SK-MEL-5
  GI50: > 100 µM (inactive)
SK-OV-3
  GI50: > 100 µM (inactive)
SN12C
  GI50: > 100 µM (inactive)
SNB-19
  GI50: > 100 µM (inactive)
SNB-75
  GI50: > 100 µM (inactive)
SR
  GI50: 2.44 µM (inactive)
SW-620
  GI50: > 100 µM (inactive)
T47D
  GI50: > 100 µM (inactive)
TK-10
  GI50: > 100 µM (inactive)
U-251
  GI50: > 100 µM (inactive)
UACC-257
  GI50: > 100 µM (inactive)
UACC-62
  GI50: > 100 µM (inactive)
UO-31
  GI50: > 100 µM (inactive)

## C=C1C(=O)O[C@H]2C/C(C)=C/CC[C@@]3(C)O[C@](C)(CC[C@@H]3I)[C@@H](I)C[C@@H]12
786-0
  GI50: 4.68 µM (inactive)
A498
  GI50: 9.68 µM (inactive)
A549
  GI50: 6.78 µM (inactive)
ACHN
  GI50: 7.03 µM (inactive)
BT-549
  GI50: 4.75 µM (inactive)
CAKI-1
  GI50: 7.19 µM (inactive)
CCRF-CEM
  GI50: 0.592 µM (active)
COLO 205
  GI50: 3.39 µM (inactive)
DU-145
  GI50: 5.04 µM (inactive)
EKVX
  GI50: 7.16 µM (inactive)
HCC 2998
  GI50: 4.09 µM (inactive)
HCT-116
  GI50: 2.92 µM (inactive)
HCT-15
  GI50: 2.4 µM
HL-60
  GI50: 0.893 µM (active)
HOP-62
  GI50: 8.59 µM (inactive)
HOP-92
  GI50: 5.83 µM (inactive)
HT-29
  GI50: 3.37 µM (inactive)
Hs-578T
  GI50: 8.49 µM (inactive)
IGROV-1
  GI50: 1.78 µM (inactive)
K562
  GI50: 1.95 µM (inactive)
KM12
  GI50: 3.61 µM (inactive)
LOX IMVI
  GI50: 1.56 µM (inactive)
M14
  GI50: 10.9 µM (inactive)
MCF7
  GI50: 2.25 µM (inactive)
MDA-MB-231
  GI50: 6.75 µM (inactive)
MDA-MB-435
  GI50: 3.86 µM (inactive)
MDA-N
  GI50: 2.49 µM (inactive)
MOLT-4
  GI50: 0.925 µM (active)
Malme-3M
  GI50: 7.59 µM (inactive)
NCI-H226
  GI50: 0.869 µM (active)
NCI-H23
  GI50: 8.69 µM (inactive)
NCI-H460
  GI50: 6.38 µM (inactive)
NCI-H522
  GI50: 3.05 µM (inactive)
NCI/ADR-RES
  GI50: 1.44 µM (inactive)
OVCAR-3
  GI50: 3.21 µM (inactive)
OVCAR-4
  GI50: 6.14 µM (inactive)
OVCAR-5
  GI50: 10.2 µM (inactive)
OVCAR-8
  GI50: 1.88 µM (inactive)
PC-3
  GI50: 4.91 µM (inactive)
RPMI-8226
  GI50: 0.959 µM (active)
RXF 393
  GI50: 3.97 µM (inactive)
SF-268
  GI50: 6.92 µM (inactive)
SF-295
  GI50: 6.84 µM (inactive)
SF-539
  GI50: 6.4 µM (inactive)
SK-MEL-28
  GI50: 7.01 µM (inactive)
SK-MEL-2
  GI50: 9.02 µM (inactive)
SK-MEL-5
  GI50: 3.32 µM (inactive)
SK-OV-3
  GI50: 7.24 µM (inactive)
SN12C
  GI50: 4.2 µM (inactive)
SNB-19
  GI50: 6.95 µM (inactive)
SNB-75
  GI50: 6.03 µM (inactive)
SR
  GI50: 1.5 µM (inactive)
SW-620
  GI50: 3.81 µM (inactive)
T47D
  GI50: 5.46 µM (inactive)
TK-10
  GI50: 6.03 µM (inactive)
U-251
  GI50: 4.49 µM (inactive)
UACC-257
  GI50: 5.9 µM (inactive)
UACC-62
  GI50: 4.16 µM (inactive)
UO-31
  GI50: 5.66 µM (inactive)
